Legend:
[1] = test system: splenic B cells; experiment: relative mRNA expression of B cell differentiation and TLR activation genes in isolated splenic B cells; format: in vivo; conditions: B cells from tumor bearing mice treated (Group 3), normalized to Group 1, FIG. 6B
Experimental: Mice splenic B cells were isolated from Group 1 and Group 3 mice, described in Example 3.
Spleen was harvested from mice (n=3) and minced into small pieces in RPMI-1640 basal media. The pieces were placed on top of a 40 mesh membrane and crushed with the back of a syringe and the single cell suspension was collected onto a 50 ml tube. The single cell suspension was washed twice with PBS to remove debris by centrifuging at 2000 rpm. Splenocytes were counted using haemocytometer and 100 million splenocytes were resuspended in 1 ml of isolation buffer (2% FBS, […] in DPBS) and transferred to a 5 ml polysterene tube. The B cells were isolated from splenocytes using the EasySep Stem Cell B cell isolation kit as per manufacturers protocol. Ten million B cells were used for RNA isolation, followed by relative mRNA expression levels of genes involved in B cell differentiation and TLR activation were evaluated.

[2] = test system: 4T1 tumors; experiment: tumor regression in immunocompetent versus immune-deficient mice strains; format: in vivo, mice (Balb/c, Jh−/−, SCID); conditions: FIG. 4
Text: To understand the role of immune components in tumor regression following treatment with Compound 1, tumor regression was studied in three different mice strains. These included immunocompetent mice (Balb/c); B cell-deficient mice (designated Jh^−/−) and mice lacking functional B cells and T cells (SCID). 4T1 cells were subcutaneously implanted in the three strains mentioned and when tumors reached an average volume of 100 mm^3, they were divided into two groups. One group was kept as control and the other treated with Compound 1 and the tumor volume in all the animals were recorded.

[3] = test system: T cell receptor (TCR); experiment: activation of TCR; conditions: in comparison to Oxaliplatin, FIG. 2A
[4] = test system: splenic B cells; experiment: splenic B cells cultured with treatment conditioned media (TCM) from treated 4T1 cells, relative mRNA expression; format: cell-based, mice
Experimental: 4T1 cells were seeded in cell culture dishes in RPMI-1640 media containing 10% FBS. The cells were treated with Oxaliplatin and Compound 1 when they reached 60% confluence. Following a transient treatment of 6 hours, the media was removed and supplemented with fresh culture media. Cells were incubated at 37° C. for 24 hours. After 24 hours, the treatment conditioned media (TCM) was collected from each treatment and divided into two parts. One part was passed through 0.1 micron PES filters to obtain tumor conditioned media free of cell debris, with nucleic acids intact; while the other was passed through 0.1 micron Nylon membrane filters, where the nucleic acids would stick and get removed. The filtration process through Nylon membrane was repeated twice to remove all nucleic acids from the TCM. The harvested TCMs were used immediately for conditioning of B cells, isolated from naïve mice splenocytes using the EasySep Stem Cell B cell isolation kit as per manufacturers protocol. The B cells were incubated with conditioned media and harvested after 24 hours of incubation. RNA was isolated from the B cells and used for relative mRNA expression level evaluation of genes involved in B cell differentiation and TLR activation.

[5] = test system: 4T1 cells; experiment: ds-RNA detection by propidium iodide staining after DNase/RNase treatment; format: cell-based
Experimental: 4T1 cells were grown on a coverslip in RPMI media to 70-80% confluency. The cells were treated with Compound 1 or Oxaliplatin. Detection of ds-RNA was a modification of protocol described by Kantarjian et al. (Kantarjian et al., Blood. 1985 July; 66(1):39-46). Following treatment, the coverslips were washed in phosphate-buffered saline (PBS) and fixed in 70% ice-cold ethanol. Cells were then washed with saline and treated with 1 mg/mL of DNase in 0.25 mol/L sucrose, 5 mmol/L MgCl2, and 20 mmol/L Tris-HCL (pH 6.5) at 37° C. for 60 min. In addition, another set of cells, subjected to Compound 1 or Oxaliplatin treatment were treated with RNase at a concentration of 5 mg/mL at 37° C. for 60 minutes. After another wash in PBS, the coverslips were exposed to propidium iodide at a final concentration of 50 μg/ml, diluted in a solution containing 10 mmol/L Tris-HCl (pH 7.4) and 5 mmol/L MgCl2. Stained cells were kept at 4° C. prior to microscopic analysis using a NIKON epi-fluorescence microscope using excitation wavelengths of 480 nm and emission wavelengths of 590 nm.

[6] = test system: CD8+ T cells in tumors; experiment: infiltration of cytotoxic CD8+ T-cells in treated tumors; format: in vivo; conditions: FIG. 2B
[7] = test system: 4T1 cells; experiment: immune memory study: re-implantation of 4T1 cells; format: in vivo, Balb/c mice
Experimental: 4T1 cells were subcutaneously implanted in Balb/c mice to generate tumors. When tumors reached an average volume of 100 mm^3, they were treated with Compound 1. Two groups of Balb/c mice (non-tumor bearing) were either treated with Compound 1 or saline (designated Group 1 and 2 respectively; FIG. 3A).
Immune memory cells are poised to rapidly expand and induce effector functions upon recurrence, while existing in a functionally quiescent state. In order to check this hypothesis, we examined immune memory in Compound 1 treated tumors. […] The results also rule out the effect of any residual drug inducing tumor memory in non-tumor bearing animals.

[8] = test system: 4T1 tumors; experiment: relative mRNA expression (qRT-PCR) of immune genes in harvested 4T1 tumors; format: in vivo; conditions: 4T1 tumors in Balb/c mice, one cycle of treatment, FIG. 1A
Experimental: 4T1 cells were subcutaneously implanted in Balb/c mice to generate tumors. When tumors reached an average volume of 100 mm^3, they were treated with either Compound 1 or Oxaliplatin. After one cycle of treatment, following regression, tumors were harvested and a portion of the tumor from each group was used for total RNA isolation. The tumor infiltrating immune cells were evaluated for relative mRNA expression levels of immune activating and immune suppressive genes (Denkert et al., Clin Oncol. 2015; 33(9):983-91).

[9] = test system: LLC tumors; experiment: immunohistochemical analysis of tumor sections, murine NSCLC tumor model; format: in vivo; conditions: LLC tumors in C57/BL6 mice, two cycles of treatment, FFPE sections, FIG. 1B
Experimental: Murine NSCLC tumor model was generated by subcutaneously implanting LLC cells in C57/BL6 mice. Treatment with either Compound 1 or Oxaliplatin was initiated when average tumor volume reached 100 mm^3. Following two cycles of treatment, tumors were harvested and a portion fixed in formalin. FFPE sections were generated from the fixed tumors and immunohistochemical analysis of tumor sections was carried out for both T and B-cells.

CC(C)CCC[C@@H](C)[C@H]1CCC2C3CC=C4C[C@@H](OCCN(CC(=O)[O-])CC(=O)[O][Pt+]5[NH][C@@H]6CCCC[C@H]6[NH]5)CC[C@]4(C)C3CC[C@@]21C (stereo partly drawn) [Compound 1]
IGKC mRNA levels in splenic B cells [1]: significant increase in IGKC mRNA levels | expression of TLRs and CD80 in splenic B cells [1]: elevated expression of TLRs and CD80 | tumor regression in mice lacking immune cells ([2]; 4T1 tumors in B cell-deficient (Jh−/−) and SCID mice, growth similar to control mice): Tumors do not regress | tumor regression in immunocompetent mice ([2]; 4T1 tumors in Balb/c mice): causes tumor regression only in immunocompetent mice | activation of TCR [3]: substantial activation of TCR | B cell differentiation markers and TLR activation markers (relative mRNA) ([4]; TCM with nucleic acids intact (PES filter), 24 hours incubation, FIG. 7B): substantially increased | relative level of B cell differentiation and TLR activation markers, nucleic acid depleted TCM ([4]; nucleic acids removed from TCM (Nylon membrane filter), FIG. 7C): substantially reduced | relative fluorescent intensity per field (dsRNA amount) ([5]; DNase treated samples, propidium iodide stain, FIG. 5C): enhancement of relative fluorescent intensity per field | stability of RNA adducts ([5]; compared to Oxaliplatin): more stable RNA adducts | infiltration of cytotoxic T cells (CD8+ T cells) in tumors [6]: infiltration of cytotoxic T cells | tumor growth after implantation of 4T1 cells in treated non-tumor bearing mice ([7]; Group 1: non-tumor bearing Balb/c mice treated, similar to saline treated mice (Group 2), FIG. 3C): led to the growth of tumors | tumor growth upon re-implantation of cancer cells (immune memory) ([7]; Group 3: animals that had previously undergone tumor regression with treatment, FIG. 3B): no tumor growth was observed upon re-implantation of cancer cells | IGKC mRNA levels in tumors [8]: significant increase in IGKC mRNA levels | B220 level by immunohistochemistry [9]: elevated levels | IGKC level by immunohistochemistry [9]: elevated levels
